Series [1] is described as follows: in vitro.
The subject of series [2] is A/Perth/16/2009 (H3N2). Put plainly: Antiviral activity (drug efficacy evaluation by concentration) against A/Perth/16/2009 (H3N2). It counts as cell-based, A type influenza virus. Conditions: Influenza A virus, H3N2; read-out: EC50.
Where [3] appears, read: CC50 B/Florida/04/2006, cytotoxicity in the B/Florida/04/2006 assay.
The mark [4] stands for this setting: CC50, third EC50/CC50 column pair (c7), beside the EC50 of c6.

Regarding `c1ccc(-c2cccc(CSc3nnc(Cn4cc(-c5ccccc5)cn4)o3)c2)cc1`, the melting point stood at 74.1 °C.
In series [1] (setting [3]), `[O-][S+](Cc1ccccc1-c1ccccc1)c1nnc(Cc2ccc(Br)cc2)o1` (stereo not drawn) [Compound 59, 2-(([1,1′-biphenyl]-2-ylmethyl)sulfinyl)-5-(4-bromobenzyl)-1,3,4-oxadiazole] showed a CC50 of over 50 µM.
Still for that read-out and setting: with `CN(c1ccc(Br)cc1)c1nnc(SCc2ccccc2-c2ccccc2)o1` [Compound 65, 5-(([1,1′-biphenyl]-2-ylmethyl)thio)-N-(4-bromophenyl)-N-methyl-1,3,4-oxadiazol-2-amine] the figure was over 50 µM; with `CSc1nnc(Cc2ccccc2)o1` [Compound 80, 2-benzyl-5-(methylthio)-1,3,4-oxadiazole], over 50 µM.
For `Brc1ccc(Cc2nnc(-c3ccc4ccccc4c3)o2)cc1` [Compound 98, 2-(4-bromobenzyl)-5-(naphthalen-2-yl)-1,3,4-oxadiazole], the CC50 in series [1] (CC50, beside the EC50 of c2) is over 50 µM; in series [1] (CC50, beside the EC50 of c4) it was over 50 µM; in series [1] (setting [4]) it was over 50 µM.
For the molecule `Cc1ccccc1CSc1ncc(CNc2ccc(Br)cc2)o1` [Compound 99, 4-bromo-N-((2-((2-methylbenzyl)thio)oxazol-5-yl)methyl)aniline], the CC50 in series [1] (CC50, beside the EC50 of c2) is over 50 µM; in series [1] (CC50, beside the EC50 of c4), over 50 µM; in series [1] (setting [4]), over 50 µM.
Regarding `CC(C)c1ccc(Cc2nnc(SCc3ccccc3-c3ccccc3)o2)cc1` [Compound 107, 2-(([1,1′-biphenyl]-2-ylmethyl)thio)-5-(4-isopropylbenzyl)-1,3,4-oxadiazole], the EC50 in series [2] was 20.6 µM. For the same molecule, the CC50 was over 50 µM in series [1] (CC50, beside the EC50 of c2); over 50 µM in series [1] (CC50, beside the EC50 of c4); over 50 µM in series [1] (setting [4]).
Regarding `Cc1ccccc1CCc1nnc(Cc2ccc(F)c(Cl)c2)o1` [Compound 108, 2-(3-chloro-4-fluorobenzyl)-5-(2-methylphenethyl)-1,3,4-oxadiazole], the EC50 in series [2] was over 50 µM. The CC50 is over 50 µM in series [1] (CC50, beside the EC50 of c2); over 50 µM in series [1] (CC50, beside the EC50 of c4); over 50 µM in series [1] (setting [4]).
In the case of `CC(C)c1ccccc1/C=C/c1nnc(Cc2ccc(-c3ccccc3)cc2)o1` [Compound 142, 2-([1,1′-biphenyl]-4-ylmethyl)-5-(2-isopropylstyryl)-1,3,4-oxadiazole], the CC50 is over 50 µM in series [1] (CC50, beside the EC50 of c2); over 50 µM in series [1] (CC50, beside the EC50 of c4); over 50 µM in series [1] (setting [4]).
For `Fc1ccc(Oc2ccccc2/C=C/c2nnc(Cc3ccc(Br)cc3)o2)cc1` [Compound 155, 2-(4-bromobenzyl)-5-(2-(4-fluorophenoxy)styryl)-1,3,4-oxadiazole], the CC50 in series [1] (CC50, beside the EC50 of c2) is over 50 µM; in series [1] (CC50, beside the EC50 of c4), over 50 µM; in series [1] (setting [4]), over 50 µM.
`Cc1cc(F)ccc1/C=C/c1nnc(Cc2cccc(Br)c2)o1` [Compound 186, 2-(3-bromobenzyl)-5-(4-fluoro-2-methylstyryl)-1,3,4-oxadiazole]: the CC50 was over 50 µM in series [1] (CC50, beside the EC50 of c2); over 50 µM in series [1] (CC50, beside the EC50 of c4); over 50 µM in series [1] (setting [4]).
As for `CC(C)c1ccccc1/C=C/c1nnc(Cc2ccccc2)o1` [Compound 196, 2-benzyl-5-(2-isopropylstyryl)-1,3,4-oxadiazole], the CC50 in series [1] (CC50, beside the EC50 of c2) was over 50 µM; in series [1] (CC50, beside the EC50 of c4), over 50 µM; in series [1] (setting [4]), over 50 µM.
Turning to `Cc1nc2ccccc2n1Cc1nnc(/C=C/c2ccc(F)cc2Cl)o1` [Compound 203, (E)-2-(2-chloro-4-fluorostyryl)-5-((2-methyl-1H-benzo[d]imidazol-1-yl)methyl)-1,3,4-oxadiazole], the concentration for a half-maximal effect (EC50) in series [2] was determined as 15.4 µM. The CC50 in series [1] (CC50, beside the EC50 of c2) is over 50 µM; in series [1] (CC50, beside the EC50 of c4) it was over 50 µM; in series [1] (setting [4]), over 50 µM.
Regarding `Cc1cccc(Cc2nnc(/C=C/c3ccc(F)cc3Cl)o2)c1` [Compound 211, 2-(2-chloro-4-fluorostyryl)-5-(3-methylbenzyl)-1,3,4-oxadiazole], the melting point was 100.5 °C.
Still for that read-out and setting: as for `Cn1cc(Cc2nnc(/C=C/c3ccc(F)cc3Cl)o2)c2ccccc21` [Compound 213, 2-(2-chloro-4-fluorostyryl)-5-((1-methyl-1H-indol-3-yl)methyl)-1,3,4-oxadiazole], the figure is 148.1 °C.
In the case of `Fc1ccc(/C=C/c2nnc(Cc3cccc(Br)c3)o2)c(Br)c1` [Compound 215, 2-(2-bromo-4-fluorostyryl)-5-(3-bromobenzyl)-1,3,4-oxadiazole], the melting point was 129.5 °C.
Same read-out and setting: as for `CN(C)c1cccc(Cc2nnc(/C=C/c3ccc(F)cc3Cl)o2)c1` [Compound 217, 3-((5-(2-chloro-4-fluorostyryl)-1,3,4-oxadiazol-2-yl)methyl)-N,N-dimethylaniline], the figure is 134.2 °C; as for `Oc1ccccc1/C=C/c1nnc(Cc2cccc(Br)c2)o1` [Compound 218, 2-(2-(5-(3-bromobenzyl)-1,3,4-oxadiazol-2-yl)vinyl)phenol], 179.9 °C; as for `Fc1ccc(/C=C/c2nnc(Cc3cccc(Cl)n3)o2)c(Cl)c1` [Compound 219, 2-(2-chloro-4-fluorostyryl)-5-((6-chloropyridin-2-yl)methyl)-1,3,4-oxadiazole], 145.2 °C.
Still for that read-out and setting: with `Cc1cccc(Cc2nnc(/C=C/c3ccc(F)cc3Cl)o2)c1C` [Compound 221, 2-(2-chloro-4-fluorostyryl)-5-(2,3-dimethylbenzyl)-1,3,4-oxadiazole] the figure was 139.3 °C.
On the same count and under the same terms, as for `Fc1ccc(/C=C/c2nnc(Cc3ccccc3Br)o2)c(Cl)c1` [Compound 222, 2-(2-bromobenzyl)-5-(2-chloro-4-fluorostyryl)-1,3,4-oxadiazole], the figure is 155.2 °C.
In turn, `Fc1ccc(/C=C/c2nnc(CCc3cccc(Br)c3)o2)c(Cl)c1` [Compound 223, 2-(3-bromophenethyl)-5-(2-chloro-4-fluorostyryl)-1,3,4-oxadiazole] displayed a melting point of 108.7 °C.
Still for that read-out and setting: as for `Clc1ncccc1/C=C/c1nnc(Cc2cccc(Br)c2)o1` [Compound 225, 2-(3-bromobenzyl)-5-(2-(2-chloropyridin-3-yl)vinyl)-1,3,4-oxadiazole], the figure is 162.5 °C.
`Fc1cccc(Cc2nnc(/C=C/c3ccc(F)cc3Cl)o2)c1` [Compound 226, 2-(2-chloro-4-fluorostyryl)-5-(3-fluorobenzyl)-1,3,4-oxadiazole] had a melting point of 132.5 °C.
Same read-out and setting: with `Fc1ccc(/C=C/c2nnc(Cc3cccc4cccnc34)o2)c(Cl)c1` [Compound 236, 2-(2-chloro-4-fluorostyryl)-5-(quinolin-8-ylmethyl)-1,3,4-oxadiazole] the figure was 171.9 °C; with `Fc1ccc(/C=C/c2nnc(Cc3nccc4ccccc34)o2)c(Cl)c1` [Compound 237, 2-(2-chloro-4-fluorostyryl)-5-(isoquinolin-1-ylmethyl)-1,3,4-oxadiazole], 171.4 °C; with `Fc1ccc(/C=C/c2nnc(Cc3cncc4ccccc34)o2)c(Cl)c1` [Compound 238, 2-(2-chloro-4-fluorostyryl)-5-(isoquinolin-4-ylmethyl)-1,3,4-oxadiazole], 171.3 °C.
On the same count and under the same terms, with `COC(=O)c1ccccc1/C=C/c1nnc(Cc2cccc(Br)c2)o1` [Compound 242, methyl-2-(2-(5-(3-bromobenzyl)-1,3,4-oxadiazol-2-yl)vinyl)benzoate] the figure was 131.1 °C.
On the same count and under the same terms, with `O=C(O)c1ccccc1/C=C/c1nnc(Cc2cccc(Br)c2)o1` [Compound 243, 2-(2-(5-(3-bromobenzyl)-1,3,4-oxadiazol-2-yl)vinyl)benzoic acid] the figure was 167.7 °C; with `O=C(Nc1ccc(F)cc1Cl)c1nnc(Cc2cccc(Br)c2)o1` [Compound 244, 5-(3-bromobenzyl)-N-(2-chloro-4-fluorophenyl)-1,3,4-oxadiazole-2-carboxamide], 165.8 °C; with `Fc1cc(F)c(/C=C/c2nnc(Cc3cccc(Br)c3)o2)c(Cl)c1` [Compound 245, 2-(3-bromobenzyl)-5-(2-chloro-4,6-difluorostyryl)-1,3,4-oxadiazole], 112 °C.
As for `O=C(Nc1cccc(Br)c1)c1nnc(/C=C/c2ccc(F)cc2Cl)o1` [Compound 253, N-(3-bromophenyl)-5-(2-chloro-4-fluorostyryl)-1,3,4-oxadiazole-2-carboxamide], the melting point was 254.2 °C.
On the same count and under the same terms, with `Cc1cc(F)cc(Cc2nnc(/C=C/c3ccc(F)cc3Cl)o2)c1` [Compound 255, 2-(2-chloro-4-fluorostyryl)-5-(3-fluoro-5-methylbenzyl)-1,3,4-oxadiazole] the figure was 117 °C.
Still for that read-out and setting: as for `FC(F)(F)Oc1ccccc1/C=C/c1nnc(Cc2cccc(Br)c2)o1` [Compound 256, 2-(3-bromobenzyl)-5-(2-(trifluoromethoxy)styryl)-1,3,4-oxadiazole], the figure is 103.6 °C; as for `Fc1ccc(/C=C/c2nnc(Cc3cc(Br)ccc3F)o2)c(Cl)c1` [Compound 258, 2-(5-bromo-2-fluorobenzyl)-5-(2-chloro-4-fluorostyryl)-1,3,4-oxadiazole], 156.6 °C; as for `Cc1ccc(Cc2nnc(/C=C/c3ccc(F)cc3F)o2)cc1Br` [Compound 262, 2-(3-bromo-4-methylbenzyl)-5-(2,4-difluorostyryl)-1,3,4-oxadiazole], 132 °C.
As to `Fc1ccc(/C=C/c2nnc(Cc3ccc(F)c(Br)c3)o2)c(F)c1` [Compound 263, 2-(3-bromo-4-fluorobenzyl)-5-(2,4-difluorostyryl)-1,3,4-oxadiazole], the melting point was found to be 115 °C.
Still for that read-out and setting: as for `Fc1ccc(/C=C/c2nnc(Cc3cccc(Br)c3)o2)c(C(F)(F)F)c1` [Compound 264, 2-(3-bromobenzyl)-5-(4-fluoro-2-(trifluoromethyl)styryl)-1,3,4-oxadiazole], the figure is 137.3 °C.
The same measure, in the same setting: as for `Cc1ccc(Cc2nnc(/C=C/c3ccc(F)cc3Br)o2)cc1Br` [Compound 265, 2-(2-bromo-4-fluorostyryl)-5-(3-bromo-4-methylbenzyl)-1,3,4-oxadiazole], the figure is 152.6 °C.
